Earlier results as cited in patent US8962668B2, “Treatment of length dependent neuropathy” (Arcion Therapeutics, Inc., priority 2005, dated 2015).

Test system: patients with painful diabetic neuropathy

SMILES: Clc1cccc(Cl)c1N=C1NCCN1 [clonidine]
- difference between clonidine transdermal patches and placebo patches (placebo-controlled cross-over pain trial (Zeigler et al.)): no statistically significant difference
- pain reduction relative to placebo (responders rechallenged, highest transdermal patch dosage, p<0.015): modest although statistically significant
- clonidine responders (transdermal patches, twelve of forty-one patients who completed initial course (Byas-Smith et al.)): 29%
